The text below walks through data of US10221125B2, “Solid forms” (Oryzon Genomics, S.A., priority 2015, dated 2019).

Format in all cases: physicochemical
The nature of data set [1]: Stability of the di-hydrochloric acid salt (decomposition, release of HCl).
The nature of data set [2]: Long-term incubation/storage at elevated temperature or elevated humidity (phase change).
The nature of data set [3]: Hygroscopicity (mass increase when relative humidity is raised from 0% rH to 90% rH). The note with it: increase in mass. From the text:
The term “hygroscopicity” describes the ability of a solid material to adsorb moisture. The hygroscopicity of a given API is characterized [European Pharmacopoeia—6th Edition (2008), Chapter 5.11) by the increase in mass when the relative humidity is raised from 0% rH to 90% rH: • non-hygroscopic: weight increase Δm<0.2%; • slightly hygroscopic: weight increase 0.2%≤Δm<2.0%; • hygroscopic: weight increase 2.0%≤Δm<15.0%; • very hygroscopic: weight increase Δm≥15.0%; • a deliquescent: sufficient water is adsorbed to form a liquid.

Data set [4] is described as follows: Thermal behaviour on heating/cooling (temperature controlled XRPD). The procedure:
For temperature controlled XRPD measurements, the sample was placed without further processing (e.g. grinding or sieving) in a quartz glass capillary of 1 mm diameter and sealed. Measurements were performed with a STOE high-/low-temperature extension (temperature range −50° C. to 300° C.) with am NiCr/Ni-thermal element at a ramp rate of 5° C. per minute, temperature steps every 5° C., 30 minutes measuring time per step, […]

Data set [5] is described as follows: Long term equilibration slurry experiments (polymorph stability).

Structures are written as SMILES. Structures can show the parent of a compound that is named as a salt.

Regarding `N[C@H]1CC[C@H](N[C@@H]2C[C@H]2c2ccccc2)CC1` [(trans)-N1-((1R,2S)-2-phenylcyclopropyl)cyclohexane-1,4-diamine di-hydrochloride], in data set [1], the “stability of di-hydrochloric acid salt (decomposition to mono-hydrochloride, release of corrosive hydrochloric acid)” value was “does not decompose and release corrosive hydrochloric acid”.
For the molecule `N[C@H]1CC[C@H](N[C@@H]2C[C@H]2c2ccccc2)CC1` [Form A, (trans)-N1-((1R,2S)-2-phenylcyclopropyl)cyclohexane-1,4-diamine di-hydrochloride], in data set [2] (increased humidity, e.g. 100% rH), the “phase change to Form B on long term storage” value is reported as “does not induce a phase change to Form B”. Further, the hygroscopicity result in data set [3] was “slightly hygroscopic (slightly hygroscopic: weight increase 0.2%≤Δm<2.0%)”.
On to `N[C@H]1CC[C@H](N[C@@H]2C[C@H]2c2ccccc2)CC1` [Form B, (trans)-N1-((1R,2S)-2-phenylcyclopropyl)cyclohexane-1,4-diamine di-hydrochloride], for which the “formation of Form C upon heating” value in data set [4] (heating of Form B) is reported as “cannot be prepared upon heating of Form B”. Besides, the decomposition temperature result in data set [4] (on heating, di-hydrochloride) is “above 210 °C”. In addition, the polymorph stability ranking entry in data set [5] is on record as “most stable polymorph”. For the same molecule, in data set [2], the “stability as compared to Form A” value is reported as “substantially increased”. In data set [2] (elevated temperature or elevated humidity, even at 100% rH), the “phase change during long-term incubation” value is “no phase-change is observed”. Besides, the hygroscopicity entry in data set [3] was “slightly hygroscopic (slightly hygroscopic: weight increase 0.2%≤Δm<2.0%)”.
As to `N[C@H]1CC[C@H](N[C@@H]2C[C@H]2c2ccccc2)CC1` [Form C, (trans)-N1-((1R,2S)-2-phenylcyclopropyl)cyclohexane-1,4-diamine di-hydrochloride], in data set [4], the polymorph stability description entry is listed as “unstable high-temperature polymorph”.
